Results on 10 compounds are retold here after ChEMBL document CHEMBL1177886, “Synthesis and biological evaluation of a novel series of 2,2-bisaminomethylated aurone analogues as anti-inflammatory and antimicrobial agents” (Eur J Med Chem, 2010).

Series [1] relates to Bacillus subtilis. Briefly: Antibacterial activity against Bacillus subtilis NCIM 2546 after 24 hrs by disc diffusion method. The class given is functional. The following applies: for MIC: Bacillus subtilis, NCIM 2546, 24 h.
Series [2] relates to Escherichia coli. As to the kind of experiment: Antibacterial activity against Escherichia coli NCIM 2065 after 24 hrs by disc diffusion method. The series is classed as functional. The note with it: for MIC: Escherichia coli, NCIM 2065, 24 h.
Series [3] relates to Staphylococcus aureus. Briefly: Antibacterial activity against Staphylococcus aureus NCIM 2120 after 24 hrs by disc diffusion method. The series is classed as functional. The following applies: for MIC: Staphylococcus aureus, NCIM 2120, 24 h.
Series [4] relates to Klebsiella pneumoniae. Briefly: Antibacterial activity against Klebsiella pneumoniae NCIM 5082 after 24 hrs by disc diffusion method. The following applies: for MIC: Klebsiella pneumoniae, NCIM 5082, 24 h. The class given is functional. Background: A growth-free zone around the sample is the usual read-out of agar diffusion tests.
Series [5] relates to Proteus vulgaris. As to the kind of experiment: Antibacterial activity against Proteus vulgaris NCIM 2813 after 24 hrs by disc diffusion method. The series is classed as functional. The note with it: for MIC: Proteus vulgaris, NCIM 2813, 24 h.
The test system of series [6] is Aspergillus fumigatus. Briefly: Antifungal activity against Aspergillus fumigatus NCIM 902 after 72 hrs by disc diffusion method. The series is classed as functional. The following applies: for MIC: Aspergillus fumigatus, NCIM 902, 72 h.
In series [7] the test system is Aspergillus niger. Briefly: Antifungal activity against Aspergillus niger NCIM 545 after 72 hrs by disc diffusion method. The series is classed as functional. The following applies: for MIC: Aspergillus niger, NCIM 545, 72 h.
For series [8], the system named is Trichoderma viride. As to the kind of experiment: Antifungal activity against Trichoderma viride TT after 72 hrs by disc diffusion method. The class given is functional. The following applies: for MIC: Trichoderma viride, TT, 72 h.
In series [9] the test system is Candida albicans. Briefly: Antifungal activity against Candida albicans NCIM 3100 after 72 hrs by disc diffusion method. The class given is functional. The note with it: for MIC: Candida albicans, NCIM 3100, 72 h.
Series [10] concerns Penicillium chrysogenum. As to the kind of experiment: Antifungal activity against Penicillium chrysogenum NCIM 707 after 72 hrs by disc diffusion method. The series is classed as functional. The following applies: for MIC: Penicillium chrysogenum, NCIM 707, 72 h.
For series [11], the system named is THP-1. Briefly: Antiinflammatory activity in human THP1 cells assessed as inhibition of LPS-induced TNFalpha production at 10 uM treated 30 mins before LPS challenge measured after 24 hrs by ELISA relative to control. The series is classed as functional. A general note: In an ELISA, binding on a coated surface is turned into a signal by an enzyme label.
Series [12] concerns THP-1. As to the kind of experiment: Antiinflammatory activity in human THP1 cells assessed as inhibition of LPS-induced IL-6 production at 10 uM treated 30 mins before LPS challenge measured after 24 hrs by ELISA relative to control. The class given is functional.
Series [13] can be described thus: Cytotoxicity against human THP-1 cells at 10 uM. The note with it: THP-1, 10 µM.
The subject of series [14] is Bacillus subtilis. As to the kind of experiment: Antibacterial activity against Bacillus subtilis after 24 hrs by disc diffusion method.

Values after ≈ are worked out from the molar mass of the structure shown. Where only a bound is given, the exact number is not on record here.

On to `CCN(C)CC1(CN(C)CC)Oc2cc(OC)cc(OC)c2C1=O`, for which the MIC in series [1] was over 100 µg/mL; in series [2], over 100 µg/mL; in [3], over 100 µg/mL; in series [4], over 100 µg/mL; in [5], over 100 µg/mL; in series [6] it was 50 µg/mL (≈ 149 µM). The minimal inhibitory concentration (MIC) in series [7] is over 100 µg/mL; in series [8] it was over 100 µg/mL; in series [9], over 100 µg/mL; in series [10] it was 50 µg/mL (≈ 149 µM). For the same compound, the “inhibition zone (IZ)” value is 14 mm in series [6] and 15 mm in series [10].
With `OC(Cn1cncn1)(Cn1cncn1)c1ccc(F)cc1F` [FLUCONAZOLE], the “inhibition zone (IZ)” value in [6] was determined as 21 mm; in [7] it was 24 mm; in [8], 18 mm; in [9] it was 24 mm; in [10] it was 24 mm. Moreover, the minimal inhibitory concentration (MIC) in series [6], in series [7], in [8], in [9] and in series [10] was 25 µg/mL (≈ 81.6 µM) each time.
`COc1cc(OC)c2c(c1)OC(CN1CCN(C)CC1)(CN1CCN(C)CC1)C2=O`: the results for the inhibition at 10 µM in series [11] and in series [12] were 76% and 97%, respectively. Moreover, the inhibition zone (IZ) turned out to be 14 mm in series [1]; 14 mm in series [2]; 16 mm in [5]; 15 mm in series [6]; 14 mm in series [7]; 14 mm in [10]. Moreover, the MIC in series [1] was 50 µg/mL (≈ 119 µM); in series [2], 50 µg/mL (≈ 119 µM); in [3], over 100 µg/mL; in series [4] it was over 100 µg/mL; in [5] it was 25 µg/mL (≈ 59.7 µM); in [6], 50 µg/mL (≈ 119 µM). Moreover, the MIC is 50 µg/mL (≈ 119 µM) in series [7], over 100 µg/mL in [9] and 50 µg/mL (≈ 119 µM) in series [10]. In [13], this compound yielded an Activity of 29%.
Turning to `COc1cc(OC)c2c(c1)OC(CN1CCCCC1)(CN1CCCCC1)C2=O`, the inhibition at 10 µM is 35% in series [11] and 82% in [12]. Besides, the “inhibition zone (IZ)” value in series [1] amounted to 18 mm; in series [3], 16 mm; in series [4] it was 18 mm; in series [5], 15 mm; in series [6], 16 mm; in series [7], 17 mm. The “inhibition zone (IZ)” value in series [8] came to 14 mm; in [10], 18 mm. For the same compound, the minimal inhibitory concentration (MIC) in [1] turned out to be 25 µg/mL (≈ 64.3 µM); in series [2] it was 25 µg/mL (≈ 64.3 µM); in series [3] it was 25 µg/mL (≈ 64.3 µM); in [4], 25 µg/mL (≈ 64.3 µM); in series [5], 50 µg/mL (≈ 129 µM); in series [6] it was 50 µg/mL (≈ 129 µM). Besides, the MIC in [7] is 25 µg/mL (≈ 64.3 µM); in [8], 50 µg/mL (≈ 129 µM); in series [9] it was over 100 µg/mL; in [10], 25 µg/mL (≈ 64.3 µM). This compound also came in with an Activity in series [13] of 21%.
Regarding `CCN1CCN(CC2(CN3CCN(CC)CC3)Oc3cc(OC)cc(OC)c3C2=O)CC1`, the “inhibition zone (IZ)” value in [1] was found to be 16 mm; in series [2] it was 16 mm; in series [3] it was 15 mm; in series [4], 17 mm; in series [5] it was 14 mm; in series [6], 14 mm. For the same compound, the “inhibition zone (IZ)” value in [7] worked out at 14 mm; in series [8], 13 mm; in [9], 13 mm; in series [10], 16 mm. The MIC amounted to 50 µg/mL (≈ 112 µM) in [1]; 50 µg/mL (≈ 112 µM) in [2]; 25 µg/mL (≈ 56 µM) in series [3]; 25 µg/mL (≈ 56 µM) in series [4]; 50 µg/mL (≈ 112 µM) in series [5]; 50 µg/mL (≈ 112 µM) in [6]. For the same compound, the MIC came to 50 µg/mL (≈ 112 µM) in series [7], 50 µg/mL (≈ 112 µM) in series [8], 50 µg/mL (≈ 112 µM) in series [9] and 25 µg/mL (≈ 56 µM) in series [10].
`COc1cc(OC)c2c(c1)OC(CN1CCOCC1)(CN1CCOCC1)C2=O`: the results for the inhibition at 10 µM in series [11] and in [12] were 89% and 100%, respectively. Besides, the inhibition zone (IZ) in series [1] amounted to 16 mm; in series [2], 16 mm; in series [3], 15 mm; in [5], 22 mm; in series [6], 18 mm; in series [7] it was 24 mm. The “inhibition zone (IZ)” value in series [8] was 15 mm; in series [9] it was 15 mm; in series [10] it was 23 mm. Also, the MIC in series [1] is 25 µg/mL (≈ 63.7 µM); in [2], 25 µg/mL (≈ 63.7 µM); in [3] it was 50 µg/mL (≈ 127 µM); in series [4] it was over 100 µg/mL; in [5] it was 25 µg/mL (≈ 63.7 µM); in series [6], 25 µg/mL (≈ 63.7 µM). Further, the MIC was 25 µg/mL (≈ 63.7 µM) in [7], 25 µg/mL (≈ 63.7 µM) in series [8], 50 µg/mL (≈ 127 µM) in series [9] and 25 µg/mL (≈ 63.7 µM) in series [10]. In series [13], this compound returned an Activity of 66%.
Turning to `CCCCN(CCCC)CC1(CN(CCCC)CCCC)Oc2cc(OC)cc(OC)c2C1=O`, the inhibition at 10 µM was 17% in series [11] and 37% in series [12]. In addition, the “inhibition zone (IZ)” value is 21 mm in series [1]; 18 mm in series [3]; 21 mm in [4]; 22 mm in [5]; 22 mm in [6]; 26 mm in series [7]. The “inhibition zone (IZ)” value in [8] is 16 mm; in series [9] it was 17 mm; in series [10], 24 mm; in series [14], 18 mm. The minimal inhibitory concentration (MIC) in series [1], in series [2], in series [3], in series [4], in [5] and in [6] was 25 µg/mL (≈ 52.4 µM) throughout. Also, the MIC in series [7], in [8], in [9] and in series [10] was 25 µg/mL (≈ 52.4 µM) in each case. For the same compound, in series [13], the Activity was found to be 65%.
Consider `COc1cc(OC)c2c(c1)OC(CN(C)C)(CN(C)C)C2=O`, for which the “inhibition zone (IZ)” value amounted to 14 mm in series [1]; 14 mm in [3]; 15 mm in series [4]; 15 mm in series [5]; 18 mm in [6]; 16 mm in [7]. Further, the “inhibition zone (IZ)” value in series [8] is listed as 15 mm; in [9], 16 mm; in [10] it was 15 mm; in series [14], 15 mm. Also, the MIC worked out at 50 µg/mL (≈ 162 µM) in [1]; 50 µg/mL (≈ 162 µM) in series [2]; 50 µg/mL (≈ 162 µM) in series [3]; 50 µg/mL (≈ 162 µM) in series [4]; 50 µg/mL (≈ 162 µM) in series [5]; 25 µg/mL (≈ 81.1 µM) in series [6]. Moreover, the MIC in series [7] was 50 µg/mL (≈ 162 µM); in [8], 25 µg/mL (≈ 81.1 µM); in series [9] it was 25 µg/mL (≈ 81.1 µM); in series [10], 50 µg/mL (≈ 162 µM).
`COc1cc(OC)c2c(c1)OC(CN1CCCC1)(CN1CCCC1)C2=O`: the inhibition at 10 µM in series [11] and in series [12] was 100% each time. The “inhibition zone (IZ)” value in series [1] was determined as 20 mm; in series [3] it was 15 mm; in series [4], 20 mm; in series [5], 22 mm; in [6], 22 mm; in series [7] it was 21 mm. Besides, the “inhibition zone (IZ)” value in [8] came to 15 mm; in [9], 14 mm; in [10], 16 mm; in series [14] it was 18 mm. In addition, the MIC in series [1], in series [2], in series [3], in [4], in series [5] and in series [6] was 25 µg/mL (≈ 69.4 µM) each time. Also, the MIC in series [7] worked out at 25 µg/mL (≈ 69.4 µM); in [8], 50 µg/mL (≈ 139 µM); in series [9], 50 µg/mL (≈ 139 µM); in series [10] it was 25 µg/mL (≈ 69.4 µM). The compound also registered an Activity in [13] of 83%.
`CCN(CC)CC1(CN(CC)CC)Oc2cc(OC)cc(OC)c2C1=O`: the inhibition at 10 µM amounted to 28% in series [11] and 74% in series [12]. In addition, the “inhibition zone (IZ)” value in [1] turned out to be 18 mm; in series [3], 16 mm; in series [4] it was 17 mm; in [5], 17 mm; in [6], 17 mm; in series [7], 17 mm. Further, the “inhibition zone (IZ)” value in series [8] stood at 16 mm; in series [9], 16 mm; in [10], 15 mm; in [14] it was 17 mm. In addition, the MIC in series [1], in series [2], in [3], in series [4], in series [5] and in series [6] was 25 µg/mL (≈ 68.6 µM) in each case. For the same compound, the MIC in series [7] came to 25 µg/mL (≈ 68.6 µM); in series [8], 25 µg/mL (≈ 68.6 µM); in series [9], 25 µg/mL (≈ 68.6 µM); in series [10], 50 µg/mL (≈ 137 µM). Besides, in series [13], the Activity is reported as 37%.

For orientation: MIC means the lowest concentration found to suppress growth. A lower MIC goes with greater potency. For orientation: inhibition means the relative decrease from the control value, in per cent.
